In ChEMBL document CHEMBL1201862, “PubChem BioAssay data set” (2004):
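Briefly, cells in 96-well plates were exposed to five compound concentrations for 48 h, and endpoints were estimated by linear interpolation. GI50 is the concentration that inhibits growth by half.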 Active and inactive are the calls of the source. No stated cut-off is given here; in the data, active = GI50 up to about 1.1 µM and inactive = higher.

What was measured:
Experiment in all cases: NCI-60 cell line screen, 48 h
CCRF-CEM = tested on: CCRF-CEM
COLO 205 = tested on: COLO 205
SK-MEL-5 = tested on: SK-MEL-5
TK-10 = tested on: TK-10
K562 = tested on: K562
NCI-H23 = tested on: NCI-H23
SF-539 = tested on: SF-539
MDA-MB-231 = tested on: MDA-MB-231
SK-OV-3 = tested on: SK-OV-3
SF-295 = tested on: SF-295
786-0 = tested on: 786-0
SK-MEL-2 = tested on: SK-MEL-2
SNB-19 = tested on: SNB-19
RXF 393 = tested on: RXF 393
SF-268 = tested on: SF-268
HT-29 = tested on: HT-29
OVCAR-5 = tested on: OVCAR-5
SR = tested on: SR
T47D = tested on: T47D
UO-31 = tested on: UO-31

Row | SMILES | GI50 (CCRF-CEM) | GI50 (COLO 205) | GI50 (SK-MEL-5) | GI50 (TK-10) | GI50 (K562) | GI50 (NCI-H23) | GI50 (SF-539) | GI50 (MDA-MB-231) | GI50 (SK-OV-3) | GI50 (SF-295) | GI50 (786-0) | GI50 (SK-MEL-2) | GI50 (SNB-19) | GI50 (RXF 393) | GI50 (SF-268) | GI50 (HT-29) | GI50 (OVCAR-5) | GI50 (SR) | GI50 (T47D) | GI50 (UO-31)
1 | CC1=NN2CCC(=O)N=C2S1 | > 100 µM (inactive) | > 100 µM (inactive) | > 100 µM (inactive) | > 100 µM (inactive) | > 100 µM (inactive) | > 100 µM (inactive) | > 100 µM (inactive) | > 100 µM (inactive) | > 100 µM (inactive) | > 100 µM (inactive) | > 100 µM (inactive) | > 100 µM (inactive) | > 100 µM (inactive) | > 100 µM (inactive) | > 100 µM (inactive) | > 100 µM (inactive) | > 100 µM (inactive) | > 100 µM (inactive) | > 100 µM (inactive) | 
2 | Nc1nc(N)c2nc(CNc3ccc(C(=O)NC(CCC(=O)O)C(=O)O)cc3F)cnc2n1 (centres undefined) | < 0.01 µM (active) | > 48.2 µM (inactive) | < 0.0128 µM (active) | > 100 µM (inactive) | < 0.01 µM (active) | < 0.01 µM (active) | < 0.01 µM (active) | > 57.9 µM (inactive) | > 100 µM (inactive) | < 0.01 µM (active) | < 0.01 µM (active) | > 59 µM (inactive) | < 0.01 µM (active) | > 100 µM (inactive) | < 0.01 µM (active) | < 0.01 µM (active) | > 100 µM (inactive) | < 0.01 µM (active) | < 0.01 µM (active) | < 0.01 µM (active)
3 | CCOC(=O)c1c(Br)c(-c2ccc(OC)cc2)c(Br)n1C | 16.3 µM (inactive) | 27.6 µM (inactive) | 10.6 µM (inactive) | 20.7 µM (inactive) | 3.61 µM (inactive) | 28 µM (inactive) | 20.7 µM (inactive) | 17 µM (inactive) | 18.5 µM (inactive) | 25.2 µM (inactive) | 21.6 µM (inactive) | 19.2 µM (inactive) | 34.9 µM (inactive) | 17.3 µM (inactive) | 55.5 µM (inactive) | 12.7 µM (inactive) | 72.3 µM (inactive) | 2.23 µM (inactive) | 13.4 µM (inactive) | 12.2 µM (inactive)
4 | C=CCC1(Sc2ccccn2)Sc2ccc3ccccc3c2-c2c(ccc3ccccc23)S1 | > 100 µM (inactive) | > 100 µM (inactive) | > 100 µM (inactive) | > 100 µM (inactive) | > 100 µM (inactive) | > 100 µM (inactive) | > 100 µM (inactive) | > 100 µM (inactive) | > 100 µM (inactive) | > 100 µM (inactive) | > 100 µM (inactive) | > 100 µM (inactive) | > 100 µM (inactive) | > 100 µM (inactive) | > 100 µM (inactive) | > 100 µM (inactive) | > 100 µM (inactive) | > 100 µM (inactive) | > 100 µM (inactive) | > 100 µM (inactive)
5 | C[C@@H]1C[C@@H]2OC(=O)[C@]3(C)[C@H]2[C@@H](OC3(C)O)[C@]2(C)C(=O)C=C[C@@H]12 (some centres undefined) [TENULIN] | 4.68 µM (inactive) | 14.2 µM (inactive) | 20.2 µM (inactive) | 18 µM (inactive) | 0.0543 µM (active) | 25.9 µM (inactive) | 32.1 µM (inactive) | 25 µM (inactive) | > 100 µM (inactive) | > 100 µM (inactive) | 31.1 µM (inactive) | 19.8 µM (inactive) | 41.4 µM (inactive) | 18.7 µM (inactive) | 31.3 µM (inactive) | 15.2 µM (inactive) | 19.9 µM (inactive) | 5.18 µM (inactive) | 19 µM (inactive) | 40.8 µM (inactive)
6 | CCC1([N+](=O)[O-])CC2C=CC1C2 (centres undefined) | > 100 µM (inactive) | > 100 µM (inactive) | > 100 µM (inactive) | > 100 µM (inactive) | > 100 µM (inactive) | > 100 µM (inactive) | > 100 µM (inactive) | > 100 µM (inactive) | > 100 µM (inactive) | > 100 µM (inactive) | > 100 µM (inactive) | > 100 µM (inactive) | > 100 µM (inactive) | > 100 µM (inactive) | > 100 µM (inactive) | > 100 µM (inactive) | > 100 µM (inactive) | > 100 µM (inactive) | > 100 µM (inactive) | > 100 µM (inactive)
7 | COc1ccc([C@H]2CC(=O)C[C@H](c3ccc(OC)cc3)C23C(=O)c2ccccc2C3=O)cc1 | 3.68 µM (inactive) | 2.64 µM (inactive) | 3.46 µM (inactive) | 7.82 µM (inactive) | 3.52 µM (inactive) | 26.1 µM (inactive) | 5.04 µM (inactive) | 2.39 µM (inactive) | 3.97 µM (inactive) | 3.95 µM (inactive) | 5.57 µM (inactive) | 3.3 µM (inactive) | 5.35 µM (inactive) | 2.92 µM (inactive) | 6.76 µM (inactive) | 3.46 µM (inactive) | 12.6 µM (inactive) | 3.28 µM (inactive) | 4.31 µM (inactive) | 17.3 µM (inactive)
